The text below walks through data of publication PMC2099433, “The binding site for neohesperidin dihydrochalcone at the human sweet taste receptor” (BMC Structural Biology, 2007).

Residue numbers refer to the chain shown, from its start. Where a SMILES comes first, the peptide text is derived from it.

The target of assay [1] is T1, hTAS1R2 + hTAS1R3 S726A^5.39 (Homo sapiens, UniProt Q7RTX0+Q8TE23, S726A).
T1 construct: expressed in transfected cells; host or cells: HEK293T cells stably expressing G16Gust44
T1 sequence (Q7RTX0 21-852 S726A): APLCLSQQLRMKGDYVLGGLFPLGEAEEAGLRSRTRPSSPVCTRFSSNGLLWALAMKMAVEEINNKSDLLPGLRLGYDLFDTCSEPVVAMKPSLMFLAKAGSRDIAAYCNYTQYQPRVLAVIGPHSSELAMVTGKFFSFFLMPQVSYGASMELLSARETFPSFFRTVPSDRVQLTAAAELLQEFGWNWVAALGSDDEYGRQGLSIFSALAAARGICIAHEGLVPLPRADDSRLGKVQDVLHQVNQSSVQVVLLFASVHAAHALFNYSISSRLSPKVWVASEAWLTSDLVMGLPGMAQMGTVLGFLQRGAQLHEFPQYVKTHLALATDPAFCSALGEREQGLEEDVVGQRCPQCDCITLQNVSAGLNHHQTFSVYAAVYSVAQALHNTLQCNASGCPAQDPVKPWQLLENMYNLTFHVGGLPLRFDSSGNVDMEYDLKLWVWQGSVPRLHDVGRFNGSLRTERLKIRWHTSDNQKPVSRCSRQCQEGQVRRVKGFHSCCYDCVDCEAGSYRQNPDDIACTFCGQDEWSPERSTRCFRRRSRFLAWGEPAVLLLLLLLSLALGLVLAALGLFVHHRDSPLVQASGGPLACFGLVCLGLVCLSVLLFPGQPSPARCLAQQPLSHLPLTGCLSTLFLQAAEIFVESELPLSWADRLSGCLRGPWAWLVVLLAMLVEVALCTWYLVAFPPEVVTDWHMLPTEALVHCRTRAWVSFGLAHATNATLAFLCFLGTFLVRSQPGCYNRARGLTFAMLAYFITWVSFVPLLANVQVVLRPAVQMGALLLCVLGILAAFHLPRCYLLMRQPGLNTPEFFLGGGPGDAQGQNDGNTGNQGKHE
T1 sequence (Q8TE23 20-839): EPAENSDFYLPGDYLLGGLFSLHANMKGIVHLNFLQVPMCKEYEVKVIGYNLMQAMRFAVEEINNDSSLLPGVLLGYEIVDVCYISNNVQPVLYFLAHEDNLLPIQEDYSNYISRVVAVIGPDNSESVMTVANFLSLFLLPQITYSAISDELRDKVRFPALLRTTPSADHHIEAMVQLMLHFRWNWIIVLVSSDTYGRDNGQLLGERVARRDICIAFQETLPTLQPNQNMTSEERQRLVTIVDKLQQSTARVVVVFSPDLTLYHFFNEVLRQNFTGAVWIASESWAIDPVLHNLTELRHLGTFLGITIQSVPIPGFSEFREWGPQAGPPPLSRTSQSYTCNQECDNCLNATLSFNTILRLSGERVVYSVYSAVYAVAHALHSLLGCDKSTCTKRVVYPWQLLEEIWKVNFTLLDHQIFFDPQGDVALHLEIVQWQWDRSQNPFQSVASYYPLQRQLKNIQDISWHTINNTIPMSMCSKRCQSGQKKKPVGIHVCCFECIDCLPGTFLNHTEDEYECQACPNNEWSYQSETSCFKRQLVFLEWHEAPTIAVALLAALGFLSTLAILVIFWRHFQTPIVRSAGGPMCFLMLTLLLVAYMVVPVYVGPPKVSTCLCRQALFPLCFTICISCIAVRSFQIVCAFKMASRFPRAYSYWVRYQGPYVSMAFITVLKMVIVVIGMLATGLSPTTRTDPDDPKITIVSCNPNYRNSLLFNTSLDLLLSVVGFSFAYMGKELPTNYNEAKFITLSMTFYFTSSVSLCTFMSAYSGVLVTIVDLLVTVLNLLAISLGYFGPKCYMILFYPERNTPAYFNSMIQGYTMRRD
The assay can be described thus: Calcium response (FLIPR), hTAS1R3 mutant coexpressed with hTAS1R2. The settings on record: variant S726A^5.39; for Emax: read-out: maximal signal (% of wt). The assay is classed as cell-based. On the procedure:
(§1) The cDNAs for TAS1Rs tagged at the C-terminus with the herpes simplex virus glycoprotein D (HSV) were transiently transfected into HEK293T cells stably expressing the chimeric G-protein subunit G16Gust44 [44] using Lipofectamine 2000 (Invitrogen, Carlsbad, CA) according to the manufacturer's protocol. 3–4 hours after transfection, DMEM was replaced by low-glucose DMEM supplemented with GlutaMAX and 10% dialyzed FBS (Invitrogen, Carlsbad, CA). 24 h post transfection, cells were loaded for 1 h with the calcium sensitive dye Fluo4-AM (2 μg/ml in DMEM, Molecular Probes, Carlsbad, CA). […] We monitored calcium mobilization following receptor stimulation with sweet tastants by an automated fluorometric imaging plate reader (FLIPR, Molecular Devices, Sunnyvale, CA). Compounds used as stimuli (Sigma-Aldrich, St. Louis, MO; Merck, Whitehouse Station, NJ) were dissolved in C1 solution. All data were collected from at least three independent experiments carried out in duplicate. The obtained calcium signals were corrected for the response of mock transfected cells and normalized to the fluorescence of cells prior to the application of the stimulus using ΔF/F = (F-F0)/F0.

Assay [2] addresses T2, hTAS1R2 + hTAS1R3 V621L^2.58 (Homo sapiens, UniProt Q7RTX0+Q8TE23, V621L).
T2 construct: expressed in transfected cells; host or cells: HEK293T cells stably expressing G16Gust44
T2 sequence (Q8TE23 20-839): T1 sequence (Q8TE23 20-839)
T2 sequence (Q7RTX0 21-852 V621L): T1 sequence (Q7RTX0 21-852 S726A) with V601L, A706S
The assay is described as above. The class given is cell-based. The settings on record: for receptor activation: mutant V621L^2.58; for EC50: variant V621L^2.58, n.f. = no response to any tested sweetener. The protocol:
as §1

On to `COc1ccc(CCC(=O)c2c(O)cc(O[C@@H]3O[C@H](CO)[C@@H](O)[C@H](O)[C@H]3O[C@@H]3O[C@@H](C)[C@H](O)[C@@H](O)[C@H]3O)cc2O)cc1O` [NHDC, neohesperidin dihydrochalcone], for which, in assay [1], the EC50 (in general, the concentration giving half of the maximal effect) turned out to be 900 ± 300 µM and the Emax is 60 ± 50%. For the same molecule, in assay [2], the receptor activation result was “could not be activated” and the EC50 result was “n.f”.

In the case of `CC1=CC(=O)NS(=O)(=O)O1` [acesulfame K], the receptor activation result in assay [2] was “could not be activated”.

On to `COC(=O)[C@H](Cc1ccccc1)NC(=O)[C@@H](N)CC(=O)O` [aspartame] (HELM PEPTIDE1{D.F.[CO[*:1]]}$$$$V2.0), for which, in assay [1], the EC50 amounted to 900 ± 300 µM and the Emax was found to be 50 ± 2%. In assay [2], the receptor activation result is on record as “could not be activated” and the EC50 entry was “n.f”.

As for `O=S(=O)(O)NC1CCCCC1` [cyclamate], the EC50 in assay [1] is more than 10000 µM. In assay [2], the receptor activation result is reported as “could not be activated”.
